The values below are quoted from earlier work in US20040192601A1, “Lipid binding molecules and methods of use” (priority 2002, published 2004).

The subject of the data set is PI3K. Conditions: W7 used at 100 μM; stated as a property of the calmodulin inhibitor.

As for `NCCCCCCNS(=O)(=O)c1cccc2c(Cl)cccc12` [W7], the “Inhibition of PI3K activity” value is listed as “does not inhibit PI3K activity”.
